Reference: patent US20090088380A1, “GHRH ANALOGS AND THERAPEUTIC USES THEREOF” (priority 2007, published 2009)
Non-standard residues stand in square brackets, D forms with d. Residues, ends and D or L forms follow the SMILES beside them.

Key:
[1] = tested on: Canine Growth Hormone; experiment: In vivo GH secretion in a male Beagle dog, escalating SC doses, RIA
From the text: In order to assess such use of the GHRH analogs, the following experiments were undertaken. […] The above GHRH analog is a variation of a synthetic acetate salt of an amidated synthetic 29-amino acid peptide that corresponds to the amino-terminal segment of the naturally-occurring human growth hormone—releasing hormone (GHRH) with four amino acid substitutions in positions 2, 10, 15, and 22.
Prior to administration, all dosing formulations were filtered using a 0.22 μm filter to ensure sterility. […] Dosing started at approximately the same time each day, commencing at 9:00 am ±30 minutes.
For pharmacodynamic investigations, blood samples (approximately 1.0 ml) were collected from the dog on each treatment day via a jugular venipuncture at the following time points: pre-dose, 7, 15, 22, 30, 45, and 60 minutes post dosing. All blood samples were collected into potassium EDTA tubes and centrifuged under refrigeration (2 to 8° C., 1500 g for 10 minutes).
Plasma GH was determined by Linco Diagnostic Services using their own kit. Linco's Porcine/Canine Growth Hormone radioimmunoassay kit (RIA) (PGH-46HK) has been developed to quantitate Growth Hormone in plasma, serum, and tissue culture media. It is a completely homologous assay since the antibody was raised against recombinant Porcine Growth Hormone and both the standard and tracer are prepared with recombinant Porcine Growth Hormone. Since the amino acid sequences of Porcine Growth Hormone and Canine Growth Hormone are identical, this assay developed for Porcine Growth Hormone measures Canine Growth Hormone levels with equal efficiency. All components are included (standards, antibody, tracer, quality controls, precipitating reagents and buffer) necessary to complete a RIA. The assay was conducted under the following conditions: overnight; equilibrium incubation at room temperature; sample volume: 100 μl serum, plasma, or cell culture media.

[2] = in vivo; conditions: Sprague-Dawley, rat
Experimental: No mortality, adverse clinical sign, effects on body weight, food consumption, opthalmology, haematology, coagulation, clinical chemistry, urinalysis, organ weights, macroscopic or microscopic observations were noted following the dosing or recovery periods. The no adverse effect level for this study was determined to be 3 mg/kg body weight.

[3] = tested on: IGF-1, IGFBP-1 and IGFBP-3; experiment: Phase II CKD: total IGF-1, IGFBP-1 and IGFBP-3; format: in vivo, human
Experimental: Total IGF-1 (ng/mL), insulin-like growth factor binding protein (IGFBP-1 and IGFBP-3, ng/mL) were measured at every visit from baseline to Day 28 as markers for tissue and cell growth and proliferation. Samples were analysed at the Department of Nephrology, Endocrinology and Metabolic Diseases, Silesian University School of Medicine, Katowice using a Medgenix Diagnostics kit.

[4] = tested on: malnourished subjects with CKD; experiment: Phase II CKD: hormones (TSH, free thyroxin, testosterone, oestradiol); format: in vivo, human; conditions: ITT
Experimental: A blood sample was taken at screening for analysis of TSH and free thyroxin. […] The hormones testosterone (nmol/L) and oestradiol (nmol/L) were measured at baseline and on Day 28 because those could be affected by GH and could lead to secondary changes in body composition. Samples were analysed locally.

[5] = tested on: malnourished subjects with CKD; experiment: Phase II CKD: adverse events; format: in vivo, human; conditions: 28 days
From the text: The number and nature of AEs was consistent with subjects with chronic renal failure. Although the number of AEs reported by subjects in the GHRH(1-29)NH2 synthetic analog group was higher than the number reported by subjects in the placebo group (70 vs. 58), there was no clear pattern to distinguish the treatments from each other in safety terms. This might be partly due to the relatively low number of subjects in the study but, overall, the 2 groups were generally balanced with respect to the nature and incidence of AEs.

[6] = Day 0, listed as GHRH(1-29)NH2 synthetic analog
[7] = Day 28, listed as GHRH(1-29)NH2 synthetic analog

Question: With `CC[C@H](C)[C@H](NC(=O)[C@H](C)NC(=O)[C@H](CC(=O)O)NC(=O)[C@@H](C)NC(=O)[C@@H](N)Cc1ccc(O)cc1)C(=O)N[C@@H](Cc1ccccc1)C(=O)N[C@H](C(=O)N[C@@H](CC(N)=O)C(=O)N[C@@H](CO)C(=O)N[C@H](Cc1ccc(O)cc1)C(=O)N[C@@H](CCCNC(=N)N)C(=O)N[C@@H](CCCCN)C(=O)N[C@H](C(=O)N[C@@H](CC(C)C)C(=O)N[C@H](C)C(=O)N[C@@H](CCC(N)=O)C(=O)N[C@@H](CC(C)C)C(=O)N[C@@H](CO)C(=O)N[C@@H](C)C(=O)N[C@@H](CCCNC(=N)N)C(=O)N[C@@H](CCCCN)C(=O)N[C@@H](CCCCN)C(=O)N[C@@H](CC(C)C)C(=O)N[C@@H](CCC(N)=O)C(=O)N[C@@H](CC(=O)O)C(=O)N[C@H](C(=O)N[C@@H](CCSC)C(=O)N[C@@H](CO)C(=O)N[C@@H](CCCNC(=N)N)C(N)=O)[C@@H](C)CC)C(C)C)[C@@H](C)O` [GHRH analog #5, [D-Ala^2, D-Tyr^10, D-Ala^15, Lys^22] hGHRH(1-29)-NH2] (H-Y[dA]DAIFTNS[dY]RKVL[dA]QLSARKKLQDIMSR-NH2) as the compound, how does the “Canine Growth Hormone” value ([1]; 0.01 mg/kg BW SC, 0 min) read?
Answer: Its value is 1.99 ng/mL.

Question: And the “Canine Growth Hormone” value ([1]; 0.01 mg/kg BW SC, 7 min)?
Answer: The value was 1.99 ng/mL.

Question: And the “Canine Growth Hormone” value ([1]; 0.01 mg/kg BW SC, 15 min)?
Answer: The value was 5 ng/mL.

Question: And the “Canine Growth Hormone” value ([1]; 0.01 mg/kg BW SC, 22 min)?
Answer: Its value is 4 ng/mL.

Question: And the “Canine Growth Hormone” value ([1]; 0.01 mg/kg BW SC, 30 min)?
Answer: The value was 11 ng/mL.

Question: And the “Canine Growth Hormone” value ([1]; 0.01 mg/kg BW SC, 45 min)?
Answer: Its value is 17 ng/mL.

Question: And the “Canine Growth Hormone” value ([1]; 0.01 mg/kg BW SC, 60 min)?
Answer: Its value is 11 ng/mL.

Question: And the “Canine Growth Hormone” value ([1]; 0.1 mg/kg BW SC, 0 min)?
Answer: Its value is 1.99 ng/mL.

Question: What about the “Canine Growth Hormone” value ([1]; 0.1 mg/kg BW SC, 7 min) of the same compound?
Answer: Its value is 5 ng/mL.

Question: And the “Canine Growth Hormone” value ([1]; 0.1 mg/kg BW SC, 15 min)?
Answer: Its value is 9 ng/mL.

Question: And the “Canine Growth Hormone” value ([1]; 0.1 mg/kg BW SC, 22 min)?
Answer: Its value is 7 ng/mL.

Question: What about the “Canine Growth Hormone” value ([1]; 0.1 mg/kg BW SC, 30 min) of the same compound?
Answer: Its value is 6 ng/mL.

Question: And the “Canine Growth Hormone” value ([1]; 0.1 mg/kg BW SC, 45 min)?
Answer: Its value is 5 ng/mL.

Question: What about the “Canine Growth Hormone” value ([1]; 0.1 mg/kg BW SC, 60 min) of the same compound?
Answer: Its value is 1.99 ng/mL.

Question: And the “Canine Growth Hormone” value ([1]; 1 mg/kg BW SC, 0 min)?
Answer: Its value is 1.99 ng/mL.

Question: And the “Canine Growth Hormone” value ([1]; 1 mg/kg BW SC, 7 min)?
Answer: The value was 4 ng/mL.

Question: What about the “Canine Growth Hormone” value ([1]; 1 mg/kg BW SC, 15 min) of the same compound?
Answer: Its value is 14 ng/mL.

Question: What about the “Canine Growth Hormone” value ([1]; 1 mg/kg BW SC, 22 min) of the same compound?
Answer: Its value is 9 ng/mL.

Question: What about the “Canine Growth Hormone” value ([1]; 1 mg/kg BW SC, 30 min) of the same compound?
Answer: Its value is 19 ng/mL.

Question: What about the “Canine Growth Hormone” value ([1]; 1 mg/kg BW SC, 45 min) of the same compound?
Answer: Its value is 7 ng/mL.

Question: What about the “Canine Growth Hormone” value ([1]; 1 mg/kg BW SC, 60 min) of the same compound?
Answer: Its value is 7 ng/mL.

Question: What about the Treatment-related clinical signs ([1]; dog) of the same compound?
Answer: The Treatment-related clinical signs was “No treatment-related clinical signs were observed”.

Question: And the “GH response compared with natural hGHRH(1-44)NH2” value ([1]; dog, AUC not measured)?
Answer: The value was “significantly larger”.

Question: And the “GH secretion into peripheral blood, dose dependence” value ([1]; dog, subcutaneous)?
Answer: The value was “dose-dependent response”.

Question: And the Optimal sc dose ([1]; dogs)?
Answer: The Optimal sc dose was 10 μg/kg body weight.

Question: And the NOAEL at 672 h [2]?
Answer: Its NOAEL at 672 h is 3 mg/kg.

Question: And the “Mean decrease in IGFBP-1 concentration” value ([3]; 4-week treatment)?
Answer: Its value is 26.7%.

Question: What about the “IGFBP-3: adjusted difference between treatments” value ([3]; ITT) of the same compound?
Answer: Its value is 580.85 ng/mL.

Question: And the “IGFBP-1: mean (SD)” value ([3]; ITT, Baseline)?
Answer: The value was 74.98 (39.13) ng/mL.

Question: What about the “IGFBP-3: median” value ([3]; ITT, Baseline) of the same compound?
Answer: The value was 4039.6 (813.7) ng/mL.

Question: What about the “Total IGF-1: median (95% CI)” value ([3]; ITT, Baseline) of the same compound?
Answer: The value was 335.8 (—) ng/mL.

Question: And the “Total IGF-1: median (95% CI)” value ([3]; ITT, Baseline, listed as GHRH(1-29)NH2 synthetic analog)?
Answer: Its value is 335.8 ng/mL.

Question: What about the “Total IGF-1: median (95% CI)” value ([3]; ITT, Day 7) of the same compound?
Answer: Its value is 576.0 (494.10; 828.70) ng/mL.

Question: And the “Total IGF-1: median (95% CI)” value ([3]; ITT, Day 14)?
Answer: Its value is 611.8 (490.40; 913.60) ng/mL.

Question: And the “Total IGF-1: median (95% CI)” value ([3]; ITT, Day 21)?
Answer: Its value is 729.8 (497.10; 913.50) ng/mL.

Question: And the “IGFBP-1: mean (SD)” value ([3]; ITT, Day 28)?
Answer: The value was 54.94 (30.72) ng/mL.

Question: What about the “IGFBP-3: median” value ([3]; ITT, Day 28) of the same compound?
Answer: The value was 5130.8 (961.0) ng/mL.

Question: And the “Total IGF-1: median (95% CI)” value ([3]; ITT, Day 28)?
Answer: Its value is 684.2 (564.10; 881.80) ng/mL.

Question: And the “Total IGF-1: median (95% CI)” value ([3]; ITT, Day 28, listed as GHRH(1-29)NH2 synthetic analog)?
Answer: The value was 684.2 ng/mL.

Question: And the “IGFBP-1: adjusted difference between GHRH and placebo” value ([3]; ITT, listed as GHRH(1-29)NH2 synthetic analog)?
Answer: The value was 28.40 ng/mL.

Question: And the “Median total IGF-1: increase” value ([3]; baseline to day 28)?
Answer: Its value is 104%.

Question: What about the “Oestradiol: mean (SD)” value ([4]; Day 0) of the same compound?
Answer: The value was 30.400 (23.333) pg/mL.

Question: And the “Testosterone: mean (SD)” value ([4]; Day 0)?
Answer: The value was 1.550 (1.974) ng/mL.

Question: And the “Oestradiol: mean (SD)” value [4, 6]?
Answer: Its value is 30.400 pg/mL.

Question: And the “Testosterone: mean (SD)” value [4, 6]?
Answer: The value was 1.550 ng/mL.

Question: And the “Oestradiol: mean (SD)” value ([4]; Day 28)?
Answer: The value was 16.281 (10.896) pg/mL.

Question: And the “Testosterone: mean (SD)” value ([4]; Day 28)?
Answer: Its value is 1.032 (1.327) ng/mL.

Question: And the “Oestradiol: mean (SD)” value [4, 7]?
Answer: Its value is 16.281 pg/mL.

Question: And the “Testosterone: mean (SD)” value [4, 7]?
Answer: Its value is 1.032 ng/mL.

Question: What about the “Number of AEs reported” value [5] of the same compound?
Answer: The value was 70.
